Assay results taken from patent US7358267B2, “Bis-aryl thiazole derivatives” (Amgen Inc., priority 2001, dated 2008).

Assays:
[1] = tested on: UCP3; assay: UCP3 RNA induction in rat L6 cells (QPCR); type: cell-based
Protocol: Table 1 provides QPCR data (ABI 7700 Sequence Detection System) for exemplary compounds of formula I evaluated for UCP3 RNA induction in L6 cells from rats. The assay is described in Example 14.4, below.
Rat UCP3 (L6 cells) QPCR Protocol
1. (Day1) Plate 300,000 L6 cells per well (24 well plate) in Minimum Essential Medium-Alpha Medium with 2% FBS and Antibiotic/Antimycotic Solution added. Incubate for 2 days and change to fresh medium (Day3). Incubate 1 more day.
2. (Day 4) Add compound at desired concentration. Incubate for 18-20 h. 2 wells per compound. 4-wells of DMSO controls per plate.
3. (Day 5) Prepare RNA from cells: • (1) Aspirate media and lyse cells directly on plate by adding 500 μL of Trizol Reagent (Gibco BRL) to each well and passing the lysate several times through a pipette. Transfer lysate to eppendorf tubes (combining the lysate from identical compound treatments). • (2) Add 200 μL of chloroform to the 1 mL of lysate. Vortex to mix and incubate at room temp. for 2-3 min. Spin samples in a microfuge at 12,000 rpm for 15 min. at 4° C. • (3) Transfer the aqueous phase to a fresh tube. Precipitate the RNA from the aqueous phase by adding 500 μL of isopropanol and mixing well. Incubate at −20° C. for at least 15 min. Pellet the RNA by spinning at 12,000 rpm for 10 min. at 4° C. • (4) Remove the supernatant and wash the RNA pellet with 500 μL of 75% ethanol. Spin at 10,000 rpm for 5 min. at 4° C. • (5) Remove the supernatant and allow pellet to air dry briefly. Dissolve RNA in 15 μL of RNase-free water. Store at −80° C. Electrophorese some RNA to check quality.
4. QPCR (50 μL reactions in 96 well MicroAmp Optical Plate): TaqMan Gold RT-PCR Reagents (PE catalog #N808-0232): OD RNA and dilute to 5 ng/μL in RNase-free water. All samples run in duplicate with UCP3 and m18S probe/primers
Add 40 μL of Reaction Mix to 10 μL of diluted RNA (50 ng total) on QPCR plate PCR Cycling Parameters • 48° C. 30 min. • 95° C. 10 min. • 40 cycles: 95° C. 15 sec. • 58° C. 1.5 min. QPCR Primers/Probes

[2] = tested on: UCP3 protein; assay: UCP3 protein induction in vivo in skeletal muscle after oral dosing (Western blot); conditions: skeletal muscle tissue from Sprague-Dawley rats
Protocol: UCP3 protein was induced 2- to 3-fold in vivo (skeletal muscle tissue from Sprague-Dawley rats) after oral dosing with compound 1 (Western blot).
1. Isolate rat or mouse skeletal muscle and snap freeze in liquid nitrogen. Grind into a fine powder using mortar and pestle and transfer to an eppendorf tube.
2. Resuspend skeletal muscle in Buffer 1 (0.15 mM MgCl2, 10 mM KCl, 10 mM Tris-HCl, pH 6.7, stored at 4° C.).
3. Place resuspended cells on ice for 2 min. Homogenize using either Potter-Eleuhjem Teflon homogenizer and glass dounce or using hand held homogenizer for 2 min.
4. Add sucrose (1 M) to a final concentration of 0.25 M and spin at 1500 g (4000 rpm in microfuge) for 3 min. to remove nuclei.
5. Take the supernatant fraction and pellet the mitochondria by centrifugation at 10000 rpm for 10 min.
6. Resuspend pellet in 500 μl Buffer 2 (0.15 mM MgCl2, […], 10 mM Tris-HCl, pH 6.7, stored at 2-4° C.).
9. Resuspend final mitochondrial pellet in 2 7 μl Buffer 3 (0.25 M Sucrose, 10 mM Tris-acetate, pH 7.0, 3 μl 10× protease inhibitor cocktail (BMB), stored at 4° C.).
10. Determine protein concentration with BioRad protein assay dye (Bradford Reagent). 1 μl protein in 100 μl 1× Bradford Reagent. OD595 with BSA standard curve (1 μg/μl-50 μg/μl).
For antiUCP3 Westerns use 60 μg protein. Run precast 10% gels until dye front is about 1 cm from bottom of gel. […]

[3] = target: T1, RXRα (Homo sapiens, UniProt P19793); assay: RXRα induction in HEK 293 cells (transient transfection, luciferase reporter); type: cell-based
T1 construct: expressed in transfected cells; host or cells: HEK 293 cells
T1 sequence (P19793 1-462): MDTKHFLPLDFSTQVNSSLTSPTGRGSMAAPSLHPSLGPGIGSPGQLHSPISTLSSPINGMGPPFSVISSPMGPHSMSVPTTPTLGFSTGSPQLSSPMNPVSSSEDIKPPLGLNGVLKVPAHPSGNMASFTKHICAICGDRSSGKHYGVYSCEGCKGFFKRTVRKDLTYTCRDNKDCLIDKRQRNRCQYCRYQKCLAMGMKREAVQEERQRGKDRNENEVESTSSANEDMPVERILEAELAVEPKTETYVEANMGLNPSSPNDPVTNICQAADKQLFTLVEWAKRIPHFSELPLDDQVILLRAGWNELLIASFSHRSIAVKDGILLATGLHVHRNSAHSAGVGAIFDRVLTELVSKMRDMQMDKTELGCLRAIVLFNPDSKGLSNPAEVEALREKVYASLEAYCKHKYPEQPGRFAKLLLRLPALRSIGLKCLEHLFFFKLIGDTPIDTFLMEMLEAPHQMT
Protocol: Table 2 provides QPCR data (ABI 7700 Sequence Detection System) for exemplary compounds of formula I evaluated for RXR induction in HEK 293 cells, following a general protocol, briefly described below. See Naeger et al. (1999) J. Biol. Chem. 274:1875-1878 for a related cell-based assay.
DNA constructs containing a luciferase reporter plasmid and another plasmid which contained an activation domain (e.g., RXRα) were transiently transfected into HEK 293 cells. The cells were treated with the compounds and luciferase activity was measured using a luminometer. Fold induction was determined by comparing the luciferase activity of treated cells to the activity of untreated cells.

**Q.** For Cc1c(C(=O)O)cnn1-c1nc(-c2cccc(C(F)(F)F)c2)cs1 [Compound 1, 1-[4-(3-(Trifluoromethyl)phenyl)thiazol-2-yl]-5-methylpyrazole-4-carboxylic acid], which fold induction at 10 µM [1] is on record?
**A.** The fold induction at 10 µM was over 10.

**Q.** What about the UCP3 protein induction [2] of the same molecule?
**A.** The UCP3 protein induction was 2- to 3 fold.

**Q.** What about the “RXRα RNA induction at 1 μM” value ([3]; 1 μM) of the same molecule?
**A.** Its value is “++ (++ denotes greater than 5-fold induction)”.

**Q.** What about the “RXRα RNA induction at 3 μM” value ([3]; 3 μM) of the same molecule?
**A.** The value was “+ (+ denotes 5-fold or less induction)”.

**Q.** And the “RXRα RNA induction at 10 μM” value ([3]; 10 μM)?
**A.** The value was “+ (+ denotes 5-fold or less induction)”.

**Q.** What about the melting point of the same molecule?
**A.** The melting point was 226.7 to 227.5 °C.
